According to patent US8563714B2, “Bridged spiro [2.4] heptane derivatives as ALX receptor and/or FPRL2 agonists” (Actelion Pharmaceuticals Ltd., priority 2009, dated 2013):

What was measured:
human ALX receptor = molecular target: T1, human ALX receptor (Homo sapiens, UniProt P25090); assay: Intracellular calcium measurements (FLIPR), agonistic activity in HEK293-hALXR-Gα16 cells; format: cell-based; settings: Fluo-4 calcium FLIPR, normalized to WKYMVm 10 nM
T1 construct: expressed in transfected cells; host or cells: HEK293 (HEK293-hALXR-Gα16)
T1 sequence (P25090 1-351): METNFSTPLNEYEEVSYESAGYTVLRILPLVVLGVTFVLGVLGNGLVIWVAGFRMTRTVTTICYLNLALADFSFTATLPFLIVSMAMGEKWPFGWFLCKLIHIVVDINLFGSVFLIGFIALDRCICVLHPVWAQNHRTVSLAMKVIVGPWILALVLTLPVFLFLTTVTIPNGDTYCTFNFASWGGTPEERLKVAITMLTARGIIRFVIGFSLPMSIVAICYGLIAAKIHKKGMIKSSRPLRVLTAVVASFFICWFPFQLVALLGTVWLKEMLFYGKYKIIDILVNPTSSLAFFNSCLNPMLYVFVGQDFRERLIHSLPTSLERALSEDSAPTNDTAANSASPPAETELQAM
Outline: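 HEK293 cells expressing hALXR and Gα16 were loaded with 1 μM Fluo-4 AM and 20 mM HEPES for 60 min at 37°C, then exposed to serially diluted compound. FLIPR fluorescence was read at ex 488/em 540 nm. Baseline-subtracted peak responses were normalized to 10 nM WKYMVm.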

human FPRL2 = molecular target: T2, human FPRL2 (Homo sapiens, UniProt P25089); assay: Intracellular calcium measurements (FLIPR), agonistic activity in HEK293-hFPRL2-Gα16 cells; format: cell-based; settings: Fluo-4 calcium FLIPR, normalized to GLY14-Humanin 100 nM
T2 construct: expressed in transfected cells; host or cells: HEK293 (HEK293-hFPRL2-Gα16)
T2 sequence (P25089 1-353): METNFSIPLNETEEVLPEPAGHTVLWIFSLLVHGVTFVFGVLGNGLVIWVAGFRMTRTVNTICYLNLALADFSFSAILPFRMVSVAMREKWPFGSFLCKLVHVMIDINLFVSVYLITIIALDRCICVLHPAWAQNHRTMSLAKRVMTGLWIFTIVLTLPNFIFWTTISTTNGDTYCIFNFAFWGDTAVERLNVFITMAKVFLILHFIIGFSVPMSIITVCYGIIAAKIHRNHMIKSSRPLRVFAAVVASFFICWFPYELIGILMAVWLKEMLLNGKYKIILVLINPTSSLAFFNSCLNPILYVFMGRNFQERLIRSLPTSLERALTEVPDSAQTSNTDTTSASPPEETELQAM
Outline: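 Peak values after baseline subtraction are expressed relative to 100 nM Gly14-Humanin; compounds diluted in assay buffer from 10 mM DMSO stocks.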

SMILES	EC50 (human ALX receptor) [µM]	EC50 (human FPRL2) [µM]
O=C(NCCN1CCCC1)[C@H]1[C@H](C(=O)Nc2ccc(Br)cc2)[C@@H]2C=C[C@H]1C21CC1 (racemic) [Example 48, (5R*)—N^5-(4-Bromophenyl)-(6R*)—N^6-(2-pyrrolidin-1-yl-ethyl)-(4S*,7R*)-[4,7-ethenylene-spiro[2.4]heptane]-5,6-dicarboxamide]	0.012	1.38
CN(C)CCCNC(=O)[C@H]1[C@H](C(=O)Nc2ccc(Br)cc2)[C@@H]2C=C[C@H]1C21CC1 (racemic) [Example 52, (5R*)—N^5-(4-Bromophenyl)-(6R*)—N^6-(3-dimethyl-amino-propyl)-(4S*,7R*)-[4,7-ethenylene-spiro[2.4]heptane]-5,6-dicarboxamide]	0.0096	6.36
CC(C)(C)OC(=O)NCCCNC(=O)[C@H]1[C@H](C(=O)Nc2ccc(Br)cc2)[C@@H]2C=C[C@H]1C21CC1 (racemic) [Example 57, (5R*)—N^5-(4-Bromophenyl)-(6R*)—N^6-(3-(N-tert-butoxycarbonyl-amino)-propyl)-(4S*,7R*)-[4,7-ethenylene-spiro[2.4]heptane]-5,6-dicarboxamide]	0.017	1.66
CC(C)CCNC(=O)[C@H]1[C@H](C(=O)Nc2ccc(Br)cc2)[C@@H]2C=C[C@H]1C21CC1 (racemic) [Example 58, (5R*)—N^5-(4-Bromophenyl)-(6R*)—N^6-(3-methyl-butyl)-(4S*,7R*)-[4,7-ethenylene-spiro[2.4]heptane]-5,6-dicarboxamide]	0.02	6.19
COC(=O)CCNC(=O)[C@H]1[C@H](C(=O)Nc2ccc(Br)cc2)[C@@H]2C=C[C@H]1C21CC1 (racemic) [Example 60, (5R*)—N^5-(4-Bromophenyl)-(6R*)—N^6-(2-(methoxy-carbonyl)-ethyl)-(4S*,7R*)-[4,7-ethenylene-spiro[2.4]heptane]-5,6-dicarboxamide]	0.022	1.48

Further compounds by falling EC50 (human ALX receptor), results first:

EC50 (human ALX receptor) [µM]	EC50 (human FPRL2) [µM]	SMILES
0.018	6.68	O=C(NCCCn1cncn1)[C@H]1[C@H](C(=O)Nc2ccc(Br)cc2)[C@@H]2C=C[C@H]1C21CC1 (racemic) [Example 55, (5R*)—N^5-(4-Bromophenyl)-(6R*)—N^6-(3-1H-[1,2,4]-triazol-1-yl-propyl)-(4S*,7R*)-[4,7-ethenylene-spiro[2.4]heptane]-5,6-dicarboxamide]
0.016	5.03	COCCCNC(=O)[C@H]1[C@H](C(=O)Nc2ccc(Br)cc2)[C@@H]2C=C[C@H]1C21CC1 (racemic) [Example 53, (5R*)—N^5-(4-Bromophenyl)-(6R*)—N^6-(3-methoxy-propyl)-(4S*,7R*)-[4,7-ethenylene-spiro[2.4]heptane]-5,6-dicarboxamide]
0.013	1.08	O=C(NCc1ccoc1)[C@H]1[C@H](C(=O)Nc2ccc(Br)cc2)[C@@H]2C=C[C@H]1C21CC1 (racemic) [Example 50, (5R*)—N^5-(4-Bromophenyl)-(6R*)—N^6-(furan-3-yl-methyl)-(4S*,7R*)-[4,7-ethenylene-spiro[2.4]heptane]-5,6-dicarboxamide]
0.012	1.51	O=C(NCCn1cncn1)[C@H]1[C@H](C(=O)Nc2ccc(Br)cc2)[C@@H]2C=C[C@H]1C21CC1 (racemic) [Example 49, (5R*)—N^5-(4-Bromophenyl)-(6R*)—N^6-(2-1H-[1,2,4]-triazol-1-yl-ethyl)-(4S*,7R*)-[4,7-ethenylene-spiro[2.4]heptane]-5,6-dicarboxamide]
0.0082	1.49	CN(C)CCCCCNC(=O)[C@H]1[C@H](C(=O)Nc2ccc(Br)cc2)[C@@H]2C=C[C@H]1C21CC1 (racemic) [Example 51, (5R*)—N^5-(4-Bromophenyl)-(6R*)—N^6-(5-dimethyl-amino-pentyl)-(4S*,7R*)-[4,7-ethenylene-spiro[2.4]heptane]-5,6-dicarboxamide]
